Assay [1] has as its target T1, G551D-CFTR (Homo sapiens, UniProt P13569, G551D).
T1 construct: The cDNA constructs of CFTR (G551D and delF508) were co-transfected with peGFP-C3; expressed in transfected cells; host or cells: CHO cells (ATCC), transient co-transfection with pEGFP-C3 (GFP as a separate marker, not fused)
The assay is described as follows: Patch-clamp recording of G551D-CFTR currents in excised inside-out patches of transfected CHO cells. Type of assay: cell-based. From the text:
(§1) Patch-clamp is considered the gold standard for assessing directly ion channel function in real time. By attaching a glass microelectrode on the surface of a cell, it is possible to record the currents generated by channels proteins that are present in this tiny “patch” of cell membranes. Since millions of ions pass through a single ion channel pore per second, the resulting microscopic currents from a single channel protein molecule can be detected with modem patch-clamp amplifiers. As ion channels (a conductor in electricity term) are arranged in parallel in the cell membrane, it is also possible to assay a group of ion channels by monitoring macroscopic currents representing the sum of currents from individual channels. Microscopic recordings allow artisans to examine exquisitely the effects of compounds on the Po and kinetic parameters of CFTR channels; whereas macroscopic recordings provide an assay not only to quantify the overall effects of compounds on N×Po×i, but also monitor the stability of the CFTR currents in real time.
(§2) Chinese hamster ovary (CHO) cells were grown at 37° C. in Dulbecco's modified Eagle's medium supplemented with 10% fetal bovine serum. Cells were subcultured into 35-mm tissue culture dishes 1 day before transfection. PolyFect transfection reagent (QIAGEN) was used to cotransfect CFTR cDNA and pEGFP-C3 (Takara Bio Inc.), which encodes green fluorescence proteins, into CHO cells. After transfection, cells were incubated at 27° C. for at least 2 days before electrophysiological experiments were performed.
(§3) Glass chips carrying the transfected cells were transferred to a chamber located on the stage of an inverted microscope (IX51; Olympus). Borosilicate capillary glasses were used to make patch pipettes using a two-stage micropipette puller (PP-81, Narishige, Japan). The pipettes were polished with a homemade microforge to a resistance of 2-4 MΩ in the bath solution. Once the seal resistance reached >40 GΩ, membrane patches were excised into an inside-out mode. Subsequently, the pipette was moved to the outlet of a three-barrel perfusion system and perfused with 25 IU PKA and 2 mM ATP until the CFTR current reached a steady state. A patch-clamp amplifier (EPC10, HEKA, Germany) was used to record electrophysiological data at room temperature. The data were filtered online at 100 Hz with an eight-pole Bessel filter (LPF-8; Warner Instruments) and digitized to a computer at a sampling rate of 500 Hz. […] Membrane potential was held at −30 or −50 mV for all recordings.
(§4) Disease-causing mutations (G551D and delF508) were made with PCR-based site-directed mutagenesis using the Pfu Ultra II (Agilent Technologies). […] The cDNA constructs of CFTR (G551D and delF508) were co-transfected with peGFP-C3 (Takara Bio Inc.) encoding the green fluorescent protein into CHO cells using PolyFect transfection reagent (QIAGEN). The transfected cells were transferred into 35 mm tissue culture dishes containing one layer of sterilized glass chips for cells to grow on. The transfected cells were incubated at 27° C. for 2-7 days before electrophysiological experiments were performed.
(§5) All patch-clamp experiments were carried out in the excised inside-out configuration. Micropipettes made of borosilicate capillary glass were pulled with a two-stage vertical puller (Narishige) and then fire-polished with a homemade microforge to reach a pipet resistance of 2-4 MΩ when the pipettes were filled with a standard inside-out pipet solution that contains: 140 mM N-Methyl-D-glucamine-Cl (NMDG-Cl), 2 mM MgCl2, 5 mM CaCl2) and 10 mM HEPES, adjusted to pH 7.4 with NMDG.

Assay [2] has as its target delF508-CFTR (Homo sapiens, UniProt P13569, DEL508-508). In words: Patch-clamp recording of delF508-CFTR currents in excised inside-out patches of transfected CHO cells. Type of assay: cell-based.
From the text: as §1, §2, §3, §4, §5

These results are taken from patent US20190210973A1, “COMPOUNDS AND METHODS FOR TREATMENT OF CYSTIC FIBROSIS” (The Curators of the University of Missouri, priority 2018, published 2019).

Sequence of delF508-CFTR (P13569 with tags, fused parts or gaps DEL508-508): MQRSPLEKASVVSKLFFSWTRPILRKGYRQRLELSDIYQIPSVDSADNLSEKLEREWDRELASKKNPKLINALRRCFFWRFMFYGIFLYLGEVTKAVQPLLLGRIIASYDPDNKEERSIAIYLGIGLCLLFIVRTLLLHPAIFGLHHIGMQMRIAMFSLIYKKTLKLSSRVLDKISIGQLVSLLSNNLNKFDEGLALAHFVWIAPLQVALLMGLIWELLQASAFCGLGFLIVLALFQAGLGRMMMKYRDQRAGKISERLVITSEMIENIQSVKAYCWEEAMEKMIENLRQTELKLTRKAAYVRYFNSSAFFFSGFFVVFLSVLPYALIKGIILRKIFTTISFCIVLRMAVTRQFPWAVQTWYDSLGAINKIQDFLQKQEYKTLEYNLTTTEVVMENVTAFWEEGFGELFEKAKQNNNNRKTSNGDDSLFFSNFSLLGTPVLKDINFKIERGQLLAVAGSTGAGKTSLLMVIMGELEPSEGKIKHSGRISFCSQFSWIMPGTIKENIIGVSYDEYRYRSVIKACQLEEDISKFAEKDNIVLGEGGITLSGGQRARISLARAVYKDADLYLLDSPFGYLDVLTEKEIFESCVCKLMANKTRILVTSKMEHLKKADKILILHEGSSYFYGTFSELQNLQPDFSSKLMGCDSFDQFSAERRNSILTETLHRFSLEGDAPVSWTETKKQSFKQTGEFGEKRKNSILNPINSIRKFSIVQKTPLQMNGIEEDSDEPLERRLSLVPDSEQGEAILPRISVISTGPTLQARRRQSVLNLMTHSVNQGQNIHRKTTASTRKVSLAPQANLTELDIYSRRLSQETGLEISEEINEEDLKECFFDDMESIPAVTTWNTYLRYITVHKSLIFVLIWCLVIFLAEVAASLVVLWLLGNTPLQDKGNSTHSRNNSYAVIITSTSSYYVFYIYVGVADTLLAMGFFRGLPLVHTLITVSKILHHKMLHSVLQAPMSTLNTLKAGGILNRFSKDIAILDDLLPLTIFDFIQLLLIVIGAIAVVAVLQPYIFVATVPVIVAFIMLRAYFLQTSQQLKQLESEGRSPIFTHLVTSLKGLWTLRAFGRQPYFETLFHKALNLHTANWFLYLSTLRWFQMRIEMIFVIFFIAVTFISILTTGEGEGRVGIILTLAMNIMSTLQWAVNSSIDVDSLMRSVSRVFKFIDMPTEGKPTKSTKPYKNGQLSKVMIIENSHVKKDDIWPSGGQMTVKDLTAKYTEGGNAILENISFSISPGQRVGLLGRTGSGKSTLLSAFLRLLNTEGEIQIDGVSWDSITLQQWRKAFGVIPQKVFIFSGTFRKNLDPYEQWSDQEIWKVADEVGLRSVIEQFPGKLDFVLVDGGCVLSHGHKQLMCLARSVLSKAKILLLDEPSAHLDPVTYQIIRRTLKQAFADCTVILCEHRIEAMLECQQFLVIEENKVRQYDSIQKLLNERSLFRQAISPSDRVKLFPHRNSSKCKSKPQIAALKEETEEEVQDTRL
T1 sequence (P13569 whole entry G551D, the tested form may be a part): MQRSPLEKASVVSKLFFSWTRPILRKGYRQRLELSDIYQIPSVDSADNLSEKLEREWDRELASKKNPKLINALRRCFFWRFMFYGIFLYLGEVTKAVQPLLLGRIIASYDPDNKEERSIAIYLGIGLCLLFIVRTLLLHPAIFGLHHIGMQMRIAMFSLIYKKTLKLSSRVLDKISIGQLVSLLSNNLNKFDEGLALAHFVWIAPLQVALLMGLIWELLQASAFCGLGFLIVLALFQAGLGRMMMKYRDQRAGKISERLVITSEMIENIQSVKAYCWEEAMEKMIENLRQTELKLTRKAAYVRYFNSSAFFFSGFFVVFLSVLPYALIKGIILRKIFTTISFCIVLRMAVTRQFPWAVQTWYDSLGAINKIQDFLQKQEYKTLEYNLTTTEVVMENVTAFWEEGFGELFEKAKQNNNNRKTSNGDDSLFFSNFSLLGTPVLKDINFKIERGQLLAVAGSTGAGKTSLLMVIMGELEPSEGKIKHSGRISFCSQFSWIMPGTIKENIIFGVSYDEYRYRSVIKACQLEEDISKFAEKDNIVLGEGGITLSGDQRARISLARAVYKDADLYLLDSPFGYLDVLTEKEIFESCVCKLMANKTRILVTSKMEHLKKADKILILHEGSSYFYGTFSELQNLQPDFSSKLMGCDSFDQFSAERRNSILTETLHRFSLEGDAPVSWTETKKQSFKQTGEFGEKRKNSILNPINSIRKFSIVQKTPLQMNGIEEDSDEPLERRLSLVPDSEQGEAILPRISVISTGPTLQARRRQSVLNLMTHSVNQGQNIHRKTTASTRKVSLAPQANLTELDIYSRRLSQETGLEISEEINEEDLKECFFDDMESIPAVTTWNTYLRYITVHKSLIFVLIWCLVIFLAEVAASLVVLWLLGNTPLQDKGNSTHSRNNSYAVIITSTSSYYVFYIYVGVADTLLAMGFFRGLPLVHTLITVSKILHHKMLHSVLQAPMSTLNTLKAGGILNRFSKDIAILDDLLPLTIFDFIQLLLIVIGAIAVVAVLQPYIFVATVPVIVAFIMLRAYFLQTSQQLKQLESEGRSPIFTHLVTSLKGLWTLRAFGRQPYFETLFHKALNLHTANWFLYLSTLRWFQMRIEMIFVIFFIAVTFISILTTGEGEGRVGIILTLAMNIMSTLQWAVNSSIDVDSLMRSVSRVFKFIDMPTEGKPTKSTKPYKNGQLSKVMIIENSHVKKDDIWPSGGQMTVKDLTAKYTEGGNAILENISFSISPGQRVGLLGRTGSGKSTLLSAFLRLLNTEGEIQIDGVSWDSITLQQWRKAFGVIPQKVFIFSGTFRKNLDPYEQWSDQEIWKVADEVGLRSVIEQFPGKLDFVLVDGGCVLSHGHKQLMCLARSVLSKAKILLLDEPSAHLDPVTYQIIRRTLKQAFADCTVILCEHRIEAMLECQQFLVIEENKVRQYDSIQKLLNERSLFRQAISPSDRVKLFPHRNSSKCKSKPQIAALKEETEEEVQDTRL

With `CC(C)(C)c1cc(C(C)(C)C)c(NC(=O)c2c[nH]c3ccccc3c2=O)cc1O` [VX-770, Ivacaftor, reference compound], in assay [1] (200 nM VX-770 alone), the “fold increase of mean G551D-CFTR current” value is “around 10 folds”. Moreover, the “effect on G551D-CFTR currents, compound alone” value in assay [1] (after activation by PKA and ATP) is “increased the current to approximately the same level as LZH-00014”. Besides, in assay [2] (200 nM VX-770 alone), the “fold increase of mean delF508-CFTR current” value is approximately 10 folds. In addition, the “rundown of delF508-CFTR current in the presence of the compound” value in assay [2] (real-time current trace, FIG. 10) was “immediately starts to decline”.
